Laboratory results as given in ChEMBL document CHEMBL5724806, “Unraveling interindividual differences and functional consequences of gut microbial metabolism of immunosuppressants” (2024).

How the values were obtained:
Format in all cases: ADME
[1] = The drug is tested on Escherichia coli strain: DSM27469 for biotransformation under anaerobic condition. The drug concentrations were measured over 6 timepoints collected between 0 and 12 hours of incubation by liquid-chromatography-coupled mass spectrometry (LC–MS); set-up: dose 5 uM, timepoint 0, 1.5, 3, 6, 9, 12 hours; details: 5 µM
[2] = The drug is tested on the gut metagenome community of A-07 with ENA study accession number: PRJEB31790 for biotransformation under anaerobic condition. The drug concentrations were measured over 7 timepoints collected between 0 and 12 hours of incubation by liquid-chromatography-coupled mass spectrometry (LC–MS); set-up: dose 5 uM, timepoint 0, 0.75, 1.5, 3, 6, 9, 12 hours; details: 5 µM
[3] = The drug is tested on the gut metagenome community of P-03 with ENA study accession number: PRJEB31790 for biotransformation under microaerobic condition. The drug concentrations were measured over 7 timepoints collected between 0 and 12 hours of incubation by liquid-chromatography-coupled mass spectrometry (LC–MS); set-up: dose 5 uM, timepoint 0, 0.75, 1.5, 3, 6, 9, 12 hours; details: 5 µM
[4] = The drug is tested on the gut metagenome community of A-05 with ENA study accession number: PRJEB31790 for biotransformation under microaerobic condition. The drug concentrations were measured over 7 timepoints collected between 0 and 12 hours of incubation by liquid-chromatography-coupled mass spectrometry (LC–MS); set-up: dose 5 uM, timepoint 0, 0.75, 1.5, 3, 6, 9, 12 hours; details: 5 µM
[5] = The drug is tested on Streptococcus mitis strain: DSM12643 for biotransformation under microaerobic condition. The drug concentrations were measured over 6 timepoints collected between 0 and 12 hours of incubation by liquid-chromatography-coupled mass spectrometry (LC–MS); set-up: dose 5 uM, timepoint 0, 1.5, 3, 6, 9, 12 hours; details: 5 µM
[6] = The drug is tested on Streptococcus salivarius strain: DSM20560 for biotransformation under anaerobic condition. The drug concentrations were measured over 6 timepoints collected between 0 and 12 hours of incubation by liquid-chromatography-coupled mass spectrometry (LC–MS); set-up: dose 5 uM, timepoint 0, 1.5, 3, 6, 9, 12 hours; details: 5 µM
[7] = The drug is tested on Gemella morbillorum strain: DSM20572 for biotransformation under microaerobic condition. The drug concentrations were measured over 6 timepoints collected between 0 and 12 hours of incubation by liquid-chromatography-coupled mass spectrometry (LC–MS); set-up: dose 5 uM, timepoint 0, 1.5, 3, 6, 9, 12 hours; details: 5 µM
[8] = The drug is tested on Gemella haemolysans strain: DSM107751 for biotransformation under anaerobic condition. The drug concentrations were measured over 6 timepoints collected between 0 and 12 hours of incubation by liquid-chromatography-coupled mass spectrometry (LC–MS); set-up: dose 5 uM, timepoint 0, 1.5, 3, 6, 9, 12 hours; details: 5 µM
[9] = The drug is tested on the gut metagenome community of P-04 with ENA study accession number: PRJEB31790 for biotransformation under microaerobic condition. The drug concentrations were measured over 7 timepoints collected between 0 and 12 hours of incubation by liquid-chromatography-coupled mass spectrometry (LC–MS); set-up: dose 5 uM, timepoint 0, 0.75, 1.5, 3, 6, 9, 12 hours; details: 5 µM
[10] = The drug is tested on Dorea formicigenerans strain: DSM3992 for biotransformation under anaerobic condition. The drug concentrations were measured over 6 timepoints collected between 0 and 12 hours of incubation by liquid-chromatography-coupled mass spectrometry (LC–MS); set-up: dose 5 uM, timepoint 0, 1.5, 3, 6, 9, 12 hours; details: 5 µM
[11] = The drug is tested on Bacteroides caccae strain: DSM19024 for biotransformation under anaerobic condition. The drug concentrations were measured over 6 timepoints collected between 0 and 12 hours of incubation by liquid-chromatography-coupled mass spectrometry (LC–MS); set-up: dose 5 uM, timepoint 0, 1.5, 3, 6, 9, 12 hours; details: 5 µM
[12] = The drug is tested on Bifidobacterium longum strain: DSM20088 for biotransformation under anaerobic condition. The drug concentrations were measured over 6 timepoints collected between 0 and 12 hours of incubation by liquid-chromatography-coupled mass spectrometry (LC–MS); set-up: dose 5 uM, timepoint 0, 1.5, 3, 6, 9, 12 hours; details: 5 µM
[13] = The drug is tested on the gut metagenome community of A-02 with ENA study accession number: PRJEB31790 for biotransformation under anaerobic condition. The drug concentrations were measured over 7 timepoints collected between 0 and 12 hours of incubation by liquid-chromatography-coupled mass spectrometry (LC–MS); set-up: dose 5 uM, timepoint 0, 0.75, 1.5, 3, 6, 9, 12 hours; details: 5 µM
[14] = The drug is tested on Bacteroides stercoris strain: HM 1036 for biotransformation under anaerobic condition. The drug concentrations were measured over 6 timepoints collected between 0 and 12 hours of incubation by liquid-chromatography-coupled mass spectrometry (LC–MS); set-up: dose 5 uM, timepoint 0, 1.5, 3, 6, 9, 12 hours; details: 5 µM
[15] = The drug is tested on Clostridium scindens strain: DSM5676 for biotransformation under anaerobic condition. The drug concentrations were measured over 6 timepoints collected between 0 and 12 hours of incubation by liquid-chromatography-coupled mass spectrometry (LC–MS); set-up: dose 5 uM, timepoint 0, 1.5, 3, 6, 9, 12 hours; details: 5 µM
[16] = The drug is tested on Blautia hansenii strain: DSM20583 for biotransformation under anaerobic condition. The drug concentrations were measured over 6 timepoints collected between 0 and 12 hours of incubation by liquid-chromatography-coupled mass spectrometry (LC–MS); set-up: dose 5 uM, timepoint 0, 1.5, 3, 6, 9, 12 hours; details: 5 µM
[17] = The drug is tested on Bifidobacterium longum strain: DSM20088 for biotransformation under microaerobic condition. The drug concentrations were measured over 6 timepoints collected between 0 and 12 hours of incubation by liquid-chromatography-coupled mass spectrometry (LC–MS); set-up: dose 5 uM, timepoint 0, 1.5, 3, 6, 9, 12 hours; details: 5 µM
[18] = The drug is tested on Bacteroides thetaiotaomicron strain: DSM2079 for biotransformation under anaerobic condition. The drug concentrations were measured over 6 timepoints collected between 0 and 12 hours of incubation by liquid-chromatography-coupled mass spectrometry (LC–MS); set-up: dose 5 uM, timepoint 0, 1.5, 3, 6, 9, 12 hours; details: 5 µM
[19] = The drug is tested on Streptococcus anginosus strain: DSM20563 for biotransformation under microaerobic condition. The drug concentrations were measured over 6 timepoints collected between 0 and 12 hours of incubation by liquid-chromatography-coupled mass spectrometry (LC–MS); set-up: dose 5 uM, timepoint 0, 1.5, 3, 6, 9, 12 hours; details: 5 µM
[20] = The drug is tested on the gut metagenome community of T-05 with ENA study accession number: PRJEB31790 for biotransformation under anaerobic condition. The drug concentrations were measured over 7 timepoints collected between 0 and 12 hours of incubation by liquid-chromatography-coupled mass spectrometry (LC–MS); set-up: dose 5 uM, timepoint 0, 0.75, 1.5, 3, 6, 9, 12 hours; details: 5 µM
[21] = The drug is tested on Lactobacillus gasseri strain: DSM20243 for biotransformation under anaerobic condition. The drug concentrations were measured over 6 timepoints collected between 0 and 12 hours of incubation by liquid-chromatography-coupled mass spectrometry (LC–MS); set-up: dose 5 uM, timepoint 0, 1.5, 3, 6, 9, 12 hours; details: 5 µM
[22] = The drug is tested on Clostridium ramosum strain: DSM1402 for biotransformation under anaerobic condition. The drug concentrations were measured over 6 timepoints collected between 0 and 12 hours of incubation by liquid-chromatography-coupled mass spectrometry (LC–MS); set-up: dose 5 uM, timepoint 0, 1.5, 3, 6, 9, 12 hours; details: thomasclavelia ramosa, 5 µM
[23] = The drug is tested on Clostridium bolteae strain: DSM15670 for biotransformation under anaerobic condition. The drug concentrations were measured over 6 timepoints collected between 0 and 12 hours of incubation by liquid-chromatography-coupled mass spectrometry (LC–MS); set-up: dose 5 uM, timepoint 0, 1.5, 3, 6, 9, 12 hours; details: enterocloster bolteae, 5 µM
[24] = The drug is tested on Parabacteroides distasonis strain: DSM20701 for biotransformation under anaerobic condition. The drug concentrations were measured over 6 timepoints collected between 0 and 12 hours of incubation by liquid-chromatography-coupled mass spectrometry (LC–MS); set-up: dose 5 uM, timepoint 0, 1.5, 3, 6, 9, 12 hours; details: 5 µM
[25] = The drug is tested on Lactobacillus paracasei strain: ATCC27092 for biotransformation under microaerobic condition. The drug concentrations were measured over 6 timepoints collected between 0 and 12 hours of incubation by liquid-chromatography-coupled mass spectrometry (LC–MS); set-up: dose 5 uM, timepoint 0, 1.5, 3, 6, 9, 12 hours; details: lacticaseibacillus paracasei, 5 µM
[26] = The drug is tested on Actinomyces naeslundi strain: DSM43013 for biotransformation under microaerobic condition. The drug concentrations were measured over 6 timepoints collected between 0 and 12 hours of incubation by liquid-chromatography-coupled mass spectrometry (LC–MS); set-up: dose 5 uM, timepoint 0, 1.5, 3, 6, 9, 12 hours; details: actinomyces naeslundii, 5 µM

Compound	Bacterial Biotransformation [1]	Bacterial Biotransformation [2]	Bacterial Biotransformation [3]	Bacterial Biotransformation [4]	Bacterial Biotransformation [5]	Bacterial Biotransformation [6]	Bacterial Biotransformation [7]	Bacterial Biotransformation [8]	Bacterial Biotransformation [9]	Bacterial Biotransformation [10]	Bacterial Biotransformation [11]	Bacterial Biotransformation [12]	Bacterial Biotransformation [13]	Bacterial Biotransformation [14]	Bacterial Biotransformation [15]	Bacterial Biotransformation [16]	Bacterial Biotransformation [17]	Bacterial Biotransformation [18]	Bacterial Biotransformation [19]	Bacterial Biotransformation [20]	further results
CCC(C)(C)C(=O)O[C@H]1C[C@@H](C)C=C2C=C[C@H](C)[C@H](CC[C@@H]3C[C@@H](O)CC(=O)O3)[C@H]21 [SIMVASTATIN]	Compound NOT metabolized	Compound NOT metabolized	Compound NOT metabolized	Compound NOT metabolized	Compound NOT metabolized	Compound NOT metabolized	Compound NOT metabolized	Compound NOT metabolized	Compound NOT metabolized	Compound NOT metabolized	Compound NOT metabolized	Compound NOT metabolized	Compound metabolized	Compound NOT metabolized	Compound metabolized	Compound NOT metabolized	Compound NOT metabolized	Compound metabolized	Compound NOT metabolized	Compound NOT metabolized	Bacterial Biotransformation [21]: Compound NOT metabolized; Bacterial Biotransformation [22]: Compound NOT metabolized; Bacterial Biotransformation [23]: Compound NOT metabolized; Bacterial Biotransformation [24]: Compound NOT metabolized; Bacterial Biotransformation [25]: Compound NOT metabolized; Bacterial Biotransformation [26]: Compound NOT metabolized
CO[C@H]1C[C@@H]2CC[C@@H](C)[C@@](O)(O2)C(=O)C(=O)N2CCCC[C@H]2C(=O)O[C@H]([C@H](C)C[C@@H]2CC[C@@H](O)[C@H](OC)C2)CC(=O)[C@H](C)/C=C(\C)[C@@H](O)[C@@H](OC)C(=O)[C@H](C)C[C@H](C)/C=C/C=C/C=C/1C [SIROLIMUS]	Compound NOT metabolized	Compound metabolized	Compound NOT metabolized	Compound metabolized	Compound NOT metabolized	Compound metabolized	Compound NOT metabolized	Compound metabolized	Compound NOT metabolized	Compound metabolized	Compound metabolized	Compound metabolized	Compound metabolized	Compound metabolized	Compound metabolized	Compound metabolized	Compound NOT metabolized	Compound NOT metabolized	Compound NOT metabolized	Compound NOT metabolized	Bacterial Biotransformation [21]: Compound metabolized; Bacterial Biotransformation [22]: Compound NOT metabolized; Bacterial Biotransformation [23]: Compound metabolized; Bacterial Biotransformation [24]: Compound metabolized; Bacterial Biotransformation [25]: Compound NOT metabolized; Bacterial Biotransformation [26]: Compound NOT metabolized
C=CC[C@@H]1/C=C(\C)C[C@H](C)C[C@H](OC)[C@H]2O[C@@](O)(C(=O)C(=O)N3CCCC[C@H]3C(=O)O[C@H](/C(C)=C/[C@@H]3CC[C@@H](O)[C@H](OC)C3)[C@H](C)[C@@H](O)CC1=O)[C@H](C)C[C@@H]2OC.O [TACROLIMUS]	Compound NOT metabolized	Compound metabolized	Compound NOT metabolized	Compound metabolized	Compound NOT metabolized	Compound NOT metabolized	Compound NOT metabolized	Compound NOT metabolized	Compound NOT metabolized	Compound metabolized	Compound NOT metabolized	Compound NOT metabolized	Compound NOT metabolized	Compound NOT metabolized	Compound metabolized	Compound metabolized	Compound NOT metabolized	Compound NOT metabolized	Compound NOT metabolized	Compound NOT metabolized	Bacterial Biotransformation [21]: Compound NOT metabolized; Bacterial Biotransformation [22]: Compound NOT metabolized; Bacterial Biotransformation [23]: Compound NOT metabolized; Bacterial Biotransformation [24]: Compound NOT metabolized; Bacterial Biotransformation [25]: Compound NOT metabolized; Bacterial Biotransformation [26]: Compound NOT metabolized
